Data: ChEMBL document CHEMBL1933042, “Discovery of potent and selective matrix metalloprotease 12 inhibitors for the potential treatment of chronic obstructive pulmonary disease (COPD)” (Bioorg Med Chem Lett, 2012)
Converted amounts (≈) assume the structure as drawn. One block for each compound: values may come before it.

Columns and labels:
[1] = species on record: Homo sapiens; experiment: Selectivity ratio of IC50 for human MMP-8 to IC50 for human MMP-12
[2] = species on record: Homo sapiens; experiment: Selectivity ratio of IC50 for human MMP-13 to IC50 for human MMP-12
[3] = test system: Mus musculus; experiment: Inhibition of human recombinant MMP12-induced lung inflammation in C57BL/6 mouse assessed as reduction in bronchoalveolar lavage inflammation at 10 mg/kg, po bid administered at 2 hrs prior to and 12 hrs post challenge measured 24 hrs after last challenge relative to vehicle treated control; type: functional; conditions: C57BL/6, Lung
[4] = test system: Mus musculus; experiment: Inhibition of human recombinant MMP12-induced lung inflammation in po dosed C57BL/6 mouse assessed as minimum effective dose for reduction in Bronchoalveolar Lavage inflammation administered bid at 2 hrs prior to and 12 hrs post challenge measured 24 hrs after last challenge; type: functional; conditions: C57BL/6, po, read-out: MED
[5] = AUC in C57BL/6 mouse at 10 mg/kg, po; type: ADME, organism-based; parameters: dose 10 mg/kg, route oral; conditions: plasma
[6] = Oral bioavailability in C57BL/6 mouse at 10 mg/kg; type: ADME, organism-based; conditions: in vivo
[7] = test system: Mus musculus; experiment: Inhibition of human recombinant MMP12-mediated ear swelling in C57BL/6 mouse at 3 mg/kg, po bid administered 12 hrs and 2 hrs prior to challenge measured after 2 hrs relative to vehicle treated control; type: functional
[8] = test system: Mus musculus; experiment: Inhibition of human recombinant MMP12-mediated ear swelling in C57BL/6 mouse at 10 mg/kg, po bid administered 12 hrs and 2 hrs prior to challenge measured after 2 hrs relative to vehicle treated control; type: functional
[9] = test system: Mus musculus; experiment: Inhibition of human recombinant MMP12-mediated ear swelling in C57BL/6 mouse at 30 mg/kg, po bid administered 12 hrs and 2 hrs prior to challenge measured after 2 hrs relative to vehicle treated control; type: functional
[10] = test system: Mus musculus; experiment: Inhibition of human recombinant MMP12-induced lung inflammation in C57BL/6 mouse assessed as reduction in bronchoalveolar lavage inflammation at 5 mg/kg, po bid at 2 hrs prior to and 12 hrs post challenge measured 24 hrs after last challenge relative to vehicle treated control; type: functional; conditions: C57BL/6, Lung
[11] = target: 72 kDa type IV collagenase (Homo sapiens, UniProt P08253); experiment: Inhibition of human MMP-2
Chain of 72 kDa type IV collagenase (P08253 whole entry): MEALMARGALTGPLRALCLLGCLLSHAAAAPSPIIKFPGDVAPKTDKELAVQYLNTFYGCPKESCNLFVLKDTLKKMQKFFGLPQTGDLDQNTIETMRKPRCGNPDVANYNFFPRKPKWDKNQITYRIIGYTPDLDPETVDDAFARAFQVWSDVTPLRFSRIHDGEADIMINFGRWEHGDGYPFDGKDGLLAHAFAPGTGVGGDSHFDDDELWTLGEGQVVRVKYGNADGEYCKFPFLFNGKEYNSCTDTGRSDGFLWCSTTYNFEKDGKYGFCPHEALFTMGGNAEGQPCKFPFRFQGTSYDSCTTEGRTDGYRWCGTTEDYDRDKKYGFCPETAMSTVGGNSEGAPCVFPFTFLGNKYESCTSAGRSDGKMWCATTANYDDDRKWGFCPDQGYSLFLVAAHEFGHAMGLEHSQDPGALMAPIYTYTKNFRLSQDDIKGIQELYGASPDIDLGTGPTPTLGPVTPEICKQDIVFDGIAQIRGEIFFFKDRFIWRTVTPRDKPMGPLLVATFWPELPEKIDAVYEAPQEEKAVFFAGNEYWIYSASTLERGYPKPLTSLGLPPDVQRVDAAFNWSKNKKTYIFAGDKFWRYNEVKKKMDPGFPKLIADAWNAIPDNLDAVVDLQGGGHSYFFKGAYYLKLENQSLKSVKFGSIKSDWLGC

[12] = target: Stromelysin-1 (Homo sapiens, UniProt P08254); experiment: Inhibition of human MMP-3
Chain of Stromelysin-1 (P08254 whole entry): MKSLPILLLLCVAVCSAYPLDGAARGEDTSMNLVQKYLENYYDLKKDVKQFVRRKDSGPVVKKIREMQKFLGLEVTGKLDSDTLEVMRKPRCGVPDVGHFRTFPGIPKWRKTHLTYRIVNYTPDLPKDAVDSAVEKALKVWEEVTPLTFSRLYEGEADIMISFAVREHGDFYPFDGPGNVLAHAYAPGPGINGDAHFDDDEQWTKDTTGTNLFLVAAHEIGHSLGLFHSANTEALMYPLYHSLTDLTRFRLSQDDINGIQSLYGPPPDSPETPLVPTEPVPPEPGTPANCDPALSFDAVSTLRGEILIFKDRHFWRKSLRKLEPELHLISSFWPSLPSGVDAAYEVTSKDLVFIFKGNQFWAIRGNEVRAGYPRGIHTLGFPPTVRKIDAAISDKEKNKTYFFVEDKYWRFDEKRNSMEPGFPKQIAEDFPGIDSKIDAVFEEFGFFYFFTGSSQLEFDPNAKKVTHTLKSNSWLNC

[13] = target: T1, Matrilysin (Homo sapiens, UniProt P09237); experiment: Inhibition of human MMP-7
T1 sequence (P09237 whole entry): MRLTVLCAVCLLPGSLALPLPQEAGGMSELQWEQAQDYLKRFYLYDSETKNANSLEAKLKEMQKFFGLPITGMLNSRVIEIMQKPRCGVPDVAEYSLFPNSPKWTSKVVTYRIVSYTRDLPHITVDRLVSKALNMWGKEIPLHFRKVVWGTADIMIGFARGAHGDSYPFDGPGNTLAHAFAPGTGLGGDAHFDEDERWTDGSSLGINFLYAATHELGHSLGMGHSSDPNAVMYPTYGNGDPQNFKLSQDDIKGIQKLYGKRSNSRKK

[14] = target: Neutrophil collagenase (Homo sapiens, UniProt P22894); experiment: Inhibition of human MMP-8
Chain of Neutrophil collagenase (P22894 whole entry): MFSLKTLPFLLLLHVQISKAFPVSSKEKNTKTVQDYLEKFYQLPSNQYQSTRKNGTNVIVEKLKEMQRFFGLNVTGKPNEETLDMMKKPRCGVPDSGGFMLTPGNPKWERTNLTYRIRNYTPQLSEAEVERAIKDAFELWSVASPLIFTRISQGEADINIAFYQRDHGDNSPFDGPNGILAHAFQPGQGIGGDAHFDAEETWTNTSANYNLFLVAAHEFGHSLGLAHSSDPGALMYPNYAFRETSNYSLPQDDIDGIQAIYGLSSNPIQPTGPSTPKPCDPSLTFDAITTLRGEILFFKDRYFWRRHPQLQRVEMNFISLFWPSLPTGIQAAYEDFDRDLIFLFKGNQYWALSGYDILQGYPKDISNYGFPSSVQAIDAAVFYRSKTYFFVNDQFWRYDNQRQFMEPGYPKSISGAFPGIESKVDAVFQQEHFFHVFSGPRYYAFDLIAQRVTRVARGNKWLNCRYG

[15] = target: Matrix metalloproteinase-9 (Homo sapiens, UniProt P14780); experiment: Inhibition of human MMP-9
Chain of Matrix metalloproteinase-9 (P14780 whole entry): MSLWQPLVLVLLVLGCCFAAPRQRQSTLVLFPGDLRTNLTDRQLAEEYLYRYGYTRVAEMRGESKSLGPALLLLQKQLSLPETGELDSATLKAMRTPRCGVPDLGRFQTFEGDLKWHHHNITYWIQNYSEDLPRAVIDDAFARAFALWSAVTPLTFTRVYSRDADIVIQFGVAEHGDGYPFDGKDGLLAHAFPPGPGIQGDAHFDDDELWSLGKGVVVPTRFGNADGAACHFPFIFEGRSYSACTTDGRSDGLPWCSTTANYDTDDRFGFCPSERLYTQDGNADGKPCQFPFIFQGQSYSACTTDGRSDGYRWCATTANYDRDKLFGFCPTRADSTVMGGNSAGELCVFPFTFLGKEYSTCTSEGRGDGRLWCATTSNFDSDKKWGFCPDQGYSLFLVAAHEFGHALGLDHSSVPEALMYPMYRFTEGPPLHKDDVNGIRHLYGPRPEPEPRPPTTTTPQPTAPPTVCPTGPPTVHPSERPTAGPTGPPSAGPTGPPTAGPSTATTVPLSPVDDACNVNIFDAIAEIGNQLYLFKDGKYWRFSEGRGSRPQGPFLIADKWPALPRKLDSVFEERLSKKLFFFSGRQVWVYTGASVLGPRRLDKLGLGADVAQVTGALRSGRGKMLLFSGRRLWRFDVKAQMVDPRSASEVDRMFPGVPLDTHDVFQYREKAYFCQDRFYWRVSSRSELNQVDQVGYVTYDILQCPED

[16] = target: Collagenase 3 (Homo sapiens, UniProt P45452); experiment: Inhibition of human MMP-13
[17] = Aqueous solubility of the compound at pH 7.4; type: physicochemical; conditions: buffer
[18] = test system: Salmonella typhimurium; experiment: Mutagenicity in Salmonella Typhimurium by AMES test; type: toxicity, organism-based; conditions: salmonella enterica subsp. enterica serovar typhimurium
[19] = target: Voltage-gated inwardly rectifying potassium channel KCNH2 (Homo sapiens, UniProt Q12809); experiment: Inhibition of human ERG
Chain of Voltage-gated inwardly rectifying potassium channel KCNH2 (Q12809 whole entry): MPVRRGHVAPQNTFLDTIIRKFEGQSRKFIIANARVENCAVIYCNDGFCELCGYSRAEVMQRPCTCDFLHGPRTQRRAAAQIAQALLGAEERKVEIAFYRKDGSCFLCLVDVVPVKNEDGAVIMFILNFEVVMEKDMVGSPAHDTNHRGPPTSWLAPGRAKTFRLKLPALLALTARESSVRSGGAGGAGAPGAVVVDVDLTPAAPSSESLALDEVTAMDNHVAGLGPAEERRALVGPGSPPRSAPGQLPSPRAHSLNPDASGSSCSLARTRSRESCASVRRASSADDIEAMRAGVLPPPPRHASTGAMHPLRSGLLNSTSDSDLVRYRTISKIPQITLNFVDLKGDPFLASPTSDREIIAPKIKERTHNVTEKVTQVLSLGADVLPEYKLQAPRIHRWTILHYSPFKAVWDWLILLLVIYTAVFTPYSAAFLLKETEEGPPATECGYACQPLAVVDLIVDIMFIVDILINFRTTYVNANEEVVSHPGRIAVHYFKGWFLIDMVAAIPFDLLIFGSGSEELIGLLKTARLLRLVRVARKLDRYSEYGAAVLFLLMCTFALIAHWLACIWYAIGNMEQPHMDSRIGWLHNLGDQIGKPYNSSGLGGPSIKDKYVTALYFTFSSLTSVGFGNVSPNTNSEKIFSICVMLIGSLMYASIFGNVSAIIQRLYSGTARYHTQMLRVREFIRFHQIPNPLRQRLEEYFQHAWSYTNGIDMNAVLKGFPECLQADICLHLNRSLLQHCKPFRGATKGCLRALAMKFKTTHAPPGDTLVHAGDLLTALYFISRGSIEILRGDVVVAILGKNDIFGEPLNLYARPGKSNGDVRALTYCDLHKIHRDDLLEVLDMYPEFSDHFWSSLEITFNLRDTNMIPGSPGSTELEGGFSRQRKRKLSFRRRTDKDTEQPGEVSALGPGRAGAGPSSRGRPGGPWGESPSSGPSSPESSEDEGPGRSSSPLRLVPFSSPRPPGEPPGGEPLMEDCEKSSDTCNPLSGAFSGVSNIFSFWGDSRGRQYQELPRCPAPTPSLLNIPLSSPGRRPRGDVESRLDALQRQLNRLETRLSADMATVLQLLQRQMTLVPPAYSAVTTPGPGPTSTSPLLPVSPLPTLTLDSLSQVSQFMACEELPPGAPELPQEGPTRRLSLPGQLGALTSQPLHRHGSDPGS

[20] = target: Macrophage metalloelastase (Mus musculus, UniProt P34960); experiment: Inhibition of mouse MMP-12
Chain of Macrophage metalloelastase (Mus musculus, UniProt P34960) (P34960 whole entry): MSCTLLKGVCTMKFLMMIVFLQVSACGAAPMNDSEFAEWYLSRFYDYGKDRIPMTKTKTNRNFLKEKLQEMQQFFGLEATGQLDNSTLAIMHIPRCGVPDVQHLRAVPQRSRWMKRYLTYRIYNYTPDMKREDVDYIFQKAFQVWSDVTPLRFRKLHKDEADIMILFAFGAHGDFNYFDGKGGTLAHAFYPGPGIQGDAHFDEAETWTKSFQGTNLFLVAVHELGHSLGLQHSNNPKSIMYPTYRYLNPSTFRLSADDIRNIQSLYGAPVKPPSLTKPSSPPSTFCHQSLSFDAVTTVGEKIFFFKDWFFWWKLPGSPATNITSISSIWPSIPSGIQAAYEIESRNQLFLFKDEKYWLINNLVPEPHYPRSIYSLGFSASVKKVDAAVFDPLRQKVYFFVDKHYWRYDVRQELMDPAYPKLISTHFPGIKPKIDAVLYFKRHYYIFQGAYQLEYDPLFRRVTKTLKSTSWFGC

[21] = target: Macrophage metalloelastase (Oryctolagus cuniculus, UniProt P79227); experiment: Inhibition of rabbit MMP-12
Chain of Macrophage metalloelastase (Oryctolagus cuniculus, UniProt P79227) (P79227 whole entry): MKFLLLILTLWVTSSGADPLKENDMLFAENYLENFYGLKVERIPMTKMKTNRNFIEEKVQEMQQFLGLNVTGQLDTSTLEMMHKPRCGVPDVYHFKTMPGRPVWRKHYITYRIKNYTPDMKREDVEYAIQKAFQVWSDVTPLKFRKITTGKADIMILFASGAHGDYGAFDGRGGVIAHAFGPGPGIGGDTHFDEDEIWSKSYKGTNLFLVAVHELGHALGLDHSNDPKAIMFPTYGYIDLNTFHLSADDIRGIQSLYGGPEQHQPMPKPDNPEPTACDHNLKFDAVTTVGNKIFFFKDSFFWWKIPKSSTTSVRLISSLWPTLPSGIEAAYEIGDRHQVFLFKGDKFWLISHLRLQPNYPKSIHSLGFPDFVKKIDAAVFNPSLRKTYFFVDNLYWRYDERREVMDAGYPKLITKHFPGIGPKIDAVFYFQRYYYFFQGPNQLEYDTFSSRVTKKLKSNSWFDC

[22] = target: Matrix metalloproteinase-12 (Canis lupus familiaris, UniProt A9X4R8); experiment: Inhibition of dog MMP-12
Chain of Matrix metalloproteinase-12 (A9X4R8 whole entry): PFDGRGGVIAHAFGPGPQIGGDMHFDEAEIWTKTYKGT

[23] = Inhibition of monkey MMP-12; parameters: species or system Macaca mulatta
[24] = Inhibition of sheep MMP-12; parameters: species or system Ovis aries
[25] = Volume of distribution at steady state in C57BL/6 mouse at 2 mg/kg, iv; type: ADME, organism-based; parameters: dose 2 mg/kg, route intravenous; conditions: in vivo, read-out: Vdss
[26] = Clearance in C57BL/6 mouse at 2 mg/kg, iv; type: ADME, organism-based; parameters: dose 2 mg/kg, route intravenous; conditions: in vivo
[27] = Half life in C57BL/6 mouse at 10 mg/kg, po; type: ADME, organism-based; parameters: dose 10 mg/kg, route oral; conditions: in vivo
[28] = Cmax in C57BL/6 mouse at 10 mg/kg, po; type: ADME, organism-based; parameters: dose 10 mg/kg, route oral; conditions: in vivo
[29] = target: Macrophage metalloelastase (Homo sapiens, UniProt P39900); experiment: Inhibition of human MMP-12
Chain of Macrophage metalloelastase (Homo sapiens, UniProt P39900) (P39900 whole entry): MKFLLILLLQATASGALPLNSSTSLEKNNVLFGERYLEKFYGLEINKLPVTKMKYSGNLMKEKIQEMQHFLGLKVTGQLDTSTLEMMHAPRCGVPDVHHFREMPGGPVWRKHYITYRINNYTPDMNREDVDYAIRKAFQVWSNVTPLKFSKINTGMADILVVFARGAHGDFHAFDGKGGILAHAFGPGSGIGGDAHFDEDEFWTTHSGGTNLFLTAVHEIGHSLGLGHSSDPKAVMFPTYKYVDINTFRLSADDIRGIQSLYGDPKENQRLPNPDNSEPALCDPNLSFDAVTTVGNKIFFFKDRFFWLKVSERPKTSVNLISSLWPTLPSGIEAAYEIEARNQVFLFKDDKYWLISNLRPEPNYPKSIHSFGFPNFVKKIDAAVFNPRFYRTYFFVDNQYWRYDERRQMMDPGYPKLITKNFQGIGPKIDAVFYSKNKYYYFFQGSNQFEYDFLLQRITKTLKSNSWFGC

Structure (SMILES): CC(C)[C@H](NS(=O)(=O)c1ccc2c(c1)oc1ccc(N3CCOCC3)cc12)C(=O)O
Ratio IC50 [2]: 154 | Ratio IC50 [1]: 3

Structure (SMILES): COC(=O)Nc1ccc2oc3cc(S(=O)(=O)N[C@H](C(=O)O)C(C)C)ccc3c2c1
Ratio IC50 [2]: 60

Structure (SMILES): CC(C)[C@H](NS(=O)(=O)c1ccc2c(c1)oc1ccc(-n3cccn3)cc12)C(=O)O
Ratio IC50 [2]: 37 | Ratio IC50 [1]: 15

Structure (SMILES): CC(C)[C@H](NS(=O)(=O)c1ccc2c(c1)oc1ccc(-c3cccs3)cc12)C(=O)O
Ratio IC50 [2]: 1690 | Ratio IC50 [1]: 100

Structure (SMILES): CC(C)[C@H](NS(=O)(=O)c1ccc2c(c1)oc1ccc(N3CCNCC3)cc12)C(=O)O
Ratio IC50 [2]: 34 | Ratio IC50 [1]: 2

Structure (SMILES): CC(C)[C@H](NS(=O)(=O)c1ccc2c(c1)oc1ccc(-n3ccc(C(F)(F)F)n3)cc12)C(=O)O
Ratio IC50 [2]: 349 | Ratio IC50 [1]: 44

Structure (SMILES): CC(C)[C@H](NS(=O)(=O)c1ccc2c(c1)oc1ccc(-n3cncn3)cc12)C(=O)O
Ratio IC50 [2]: 34 | Ratio IC50 [1]: 4

Structure (SMILES): CC(C)[C@H](NS(=O)(=O)c1ccc2c(c1)oc1ccc(-c3ccc[nH]3)cc12)C(=O)O
Ratio IC50 [2]: 525 | Ratio IC50 [1]: 143

Structure (SMILES): CC(C)[C@H](NS(=O)(=O)c1ccc2c(c1)oc1ccc(-c3ccoc3)cc12)C(=O)O
Ratio IC50 [2]: 900 | Ratio IC50 [1]: 33

Structure (SMILES): CC(C)[C@H](NS(=O)(=O)c1ccc2c(c1)oc1ccc(-c3nccs3)cc12)C(=O)O
inhibition in vivo at 10 mg/kg [3]: > 50% | minimal effective dose [4]: 5 mg/kg | AUC [5]: 20300 ng·h/mL | bioavailability [6]: 63% | inhibition in vivo at 3 mg/kg [7]: 24.9% | inhibition in vivo at 10 mg/kg [8]: 38.6% | inhibition in vivo at 30 mg/kg [9]: 65.2% | inhibition in vivo at 5 mg/kg [10]: > 50% | Ratio IC50 [2]: 1980 | Ratio IC50 [1]: 154 | IC50 [11]: 501 nM | IC50 [12]: 2530 nM | IC50 [13]: 57700 nM | IC50 [14]: 154 nM | IC50 [15]: 1970 nM | IC50 [16]: 1980 nM | solubility [17]: 550 µg/mL (≈ 1280 µM) | Activity [18]: Non-toxic | inhibition (INH) [19]: Not Active | IC50 [20]: 85 nM | IC50 [21]: 57 nM | IC50 [22]: 70 nM | IC50 [23]: 244 nM | IC50 [24]: 5.4 nM | Vd [25]: 0.8 L/kg | clearance [26]: 5 mL/min/kg | half-life [27]: 2.9 h | Cmax [28]: 5550 ng/mL

Structure (SMILES): CC(C)[C@H](NS(=O)(=O)c1ccc2c(c1)oc1ccc(N3CCN(C)CC3)cc12)C(=O)O
Ratio IC50 [2]: 38 | Ratio IC50 [1]: 0.5

Now from value to compound:

Ratio IC50 [1]: 45
Structure (SMILES): CC(C)[C@H](NS(=O)(=O)c1ccc2c(c1)oc1ccc(-c3noc(C(F)(F)F)n3)cc12)C(=O)O

Ratio IC50 [2]: 460 | Ratio IC50 [1]: 158
Structure (SMILES): Cc1cnc(-c2ccc3oc4cc(S(=O)(=O)N[C@H](C(=O)O)C(C)C)ccc4c3c2)s1

Ratio IC50 [2]: 1440 | Ratio IC50 [1]: 70
Structure (SMILES): CC(C)[C@H](NS(=O)(=O)c1ccc2c(c1)oc1ccc(-c3ccc(Cl)o3)cc12)C(=O)O

Ratio IC50 [2]: 1200 | Ratio IC50 [1]: 125
Structure (SMILES): Cc1ccc(-c2ccc3oc4cc(S(=O)(=O)N[C@H](C(=O)O)C(C)C)ccc4c3c2)s1

Ratio IC50 [1]: 100
Structure (SMILES): CC(C)[C@H](NS(=O)(=O)c1ccc2c(c1)oc1ccc(-c3noc(C4CCOC4)n3)cc12)C(=O)O (some centres undefined)

Ratio IC50 [1]: 19
Structure (SMILES): CC(C)c1nc(-c2ccc3oc4cc(S(=O)(=O)N[C@H](C(=O)O)C(C)C)ccc4c3c2)no1

Ratio IC50 [1]: 56
Structure (SMILES): CC(C)[C@H](NS(=O)(=O)c1ccc2c(c1)oc1ccc(-c3noc(C4CC4)n3)cc12)C(=O)O

Ratio IC50 [1]: 1.4
Structure (SMILES): CCc1nc(-c2ccc3oc4cc(S(=O)(=O)N[C@H](C(=O)O)C(C)C)ccc4c3c2)no1

Ratio IC50 [1]: 60
Structure (SMILES): CC(C)[C@H](NS(=O)(=O)c1ccc2c(c1)oc1ccc(-c3noc(-c4ccccc4)n3)cc12)C(=O)O

Ratio IC50 [1]: 10
Structure (SMILES): COCc1nc(-c2ccc3oc4cc(S(=O)(=O)N[C@H](C(=O)O)C(C)C)ccc4c3c2)no1

IC50 [29]: < 1 nM | Ratio IC50 [2]: > 1130 | Ratio IC50 [1]: > 2500
Structure (SMILES): CC(C)[C@H](NS(=O)(=O)c1ccc2c(c1)oc1ccc(-c3cc[nH]n3)cc12)C(=O)O

Ratio IC50 [1]: 44
Structure (SMILES): CC(C)[C@H](NS(=O)(=O)c1ccc2c(c1)oc1ccc(-c3noc(C4CCC4)n3)cc12)C(=O)O
